According to US5674840A, “Synthetic aglucodalbaheptide antibiotics” (Gruppo Lepetit SpA, priority 1993, dated 1997):

Legend:
Experiment in all cases: in vitro antibacterial activity, MIC microdilution
[1] = tested on: Enterococcus faecalis ATCC 7,080 (L 149); assay type: cell-based; settings: Mueller-Hinton broth, 0.01% bovine serum albumin, 37° C., 18-24 hours
Protocol: (§1) The in vitro antibacterial activity of the compounds is determined by means of standard […] tests in microtiter. Iso-Sensitest broth (Oxoid) is used for all bacteria except streptococci (Todd-Wewitt broth, Difco) and enterococci (Mueller-Hinton, Difco). Broth cultures are diluted so that the final inoculum was about 5×10^5 cfu/ml (colony forming units per ml). All broth microdilution MICs are performed in the presence of 0.01% bovine serum albumin (Pentax fraction V, Sigma).

[2] = tested on: S. epidermidis ATCC 12,228 (L 147); assay type: cell-based; settings: Iso-Sensitest broth, 0.01% bovine serum albumin, 37° C., 18-24 hours
Protocol: as §1

[3] = tested on: S. epidermidis clin. isol. (L 533); assay type: cell-based; settings: Iso-Sensitest broth, 0.01% bovine serum albumin, 37° C., 18-24 hours
Protocol: as §1

[4] = tested on: S. haemolyticus clin, isol. (L 602); assay type: cell-based; settings: Iso-Sensitest broth, 0.01% bovine serum albumin, 37° C., 18-24 hours
Protocol: as §1

[5] = tested on: Staph. aurevi Tour (L 165); assay type: cell-based; settings: Iso-Sensitest broth, 0.01% bovine serum albumin, 37° C., 18-24 hours
Protocol: as §1

[6] = tested on: Strep. pneumoniae UC41 (L 44); assay type: cell-based; settings: Todd-Wewitt broth, 0.01% bovine serum albumin, 37° C., 18-24 hours
Protocol: as §1

[7] = tested on: s. aureus clin. isol. (L 561); assay type: cell-based; settings: Iso-Sensitest broth, 0.01% bovine serum albumin, 37° C., 18-24 hours
Protocol: as §1

[8] = tested on: Strep. pyogenes C203 (L 49); assay type: cell-based; settings: Todd-Wewitt broth, 0.01% bovine serum albumin, 37° C., 18-24 hours
Protocol: as §1, with “(Todd-[…]” for “(Todd-Wewitt”, “ml).” for “ml). All broth microdilution MICs are performed in the presence of 0.01% bovine serum albumin (Pentax fraction V, Sigma).”

s. aureus Smith (L 819) = assay type: cell-based; settings: Iso-Sensitest broth, 0.01% bovine serum albumin, 37° C., 18-24 hours
Protocol: as §1, with “(Todd-[…]” for “(Todd-Wewitt”, “ml).” for “ml). All broth microdilution MICs are performed in the presence of 0.01% bovine serum albumin (Pentax fraction V, Sigma).”

[9] = tested on: E. faecalis clin. isol. (L 502); assay type: cell-based, Enterococcus faecalis; settings: for MIC: E. faecalis clin. isol. (L 502), Mueller-Hinton broth, 0.01% bovine serum albumin, 37° C., 18-24 hours
Protocol: as §1

Compound | MIC [1] [mg/1] | MIC [2] [mg/1] | MIC [3] [mg/1] | MIC [4] [mg/1] | MIC [5] [mg/1] | MIC [6] [mg/1] | MIC [7] [mg/1] | MIC [8] [mg/1] | MIC (s. aureus Smith (L 819)) [mg/1] | MIC [9] [mg/1] | activity against a clinical isolate of Enterococcus faecalis (in words) ([9]; clinical isolate of Enterococcus faecalis)
N[C@H]1C(=O)N[C@@H]2Cc3ccc(c(Cl)c3)Oc3cc4cc(c3O)Oc3ccc(cc3Cl)[C@@H](O)[C@@H]3NC(=O)[C@H](NC(=O)[C@@H]4NC(=O)[C@@H](NC2=O)c2cc(O)cc(c2)Oc2cc1ccc2O)c1ccc(O)c(c1)-c1c(O)cc(O)cc1[C@@H](C(=O)O)NC3=O [teicoplanin aglycon] | 0.13 | 0.06 | 0.016 | 0.25 | 0.13 | 0.13 | 0.13 | 0.13 | 0.06 | > 128 | –
(L-phenylalanyl)^3 -(D-lysyl)^15 -aglucoteicoplanin dalbaheptide methyl ester | 0.5 | 0.13 | 0.13 | 0.5 | 0.13 | 0.13 | 0.06 | 0.25 | 0.13 | 16 | surprisingly active
teicoplanin | 0.13 | 8 | 8 | 32 | 0.13 | 0.13 | 8 | 0.13 | 0.25 | > 128 | –
